Active and inactive are the calls of the source. The rule behind the calls is not given here.
Experiments:
[1] = test system: Trichophyton mentagrophytes; assay: Antifungal activity against Trichophyton mentagrophytes KCTC 6085 at 60 ug/disk after 4 days by paper-disk agar diffusion assay; type: functional, organism-based
[2] = test system: Trichophyton mentagrophytes; assay: Antifungal activity against Trichophyton mentagrophytes KCTC 6085 at 20 ug/disk after 4 days by paper-disk agar diffusion assay; type: functional; settings: KCTC 6085, 96 h, read-out: IZ
[3] = test system: Trichophyton mentagrophytes; assay: Antifungal activity against Trichophyton mentagrophytes KCTC 6085 at 40 ug/disk after 4 days by paper-disk agar diffusion assay; type: functional; settings: KCTC 6085, 96 h, read-out: IZ

OCC1=CC[C@@H](O)[C@H]2CCC[C@@H]12
Activity [1]: inactive

O=CC1=CC[C@@H](O)[C@@H]2CCC[C@H]12 (relative stereo) [ISOTSAOKOIN]
zone of inhibition at 20 µg/disc [2]: 1.5 mm
zone of inhibition at 40 µg/disc [3]: 2 mm

C[C@@H]1[C@H](O)[C@@H](C)/C=C/C=C/C=C/C=C/C=C/C=C/C=C/[C@H](O[C@@H]2O[C@H](C)[C@@H](O)[C@H](N)[C@@H]2O)C[C@@H]2O[C@](O)(C[C@@H](O)C[C@@H](O)[C@H](O)CC[C@@H](O)C[C@@H](O)CC(=O)O[C@H]1C)C[C@H](O)[C@H]2C(=O)O [AMPHOTERICIN B]
zone of inhibition at 20 µg/disc [2]: 2.5 mm
zone of inhibition at 40 µg/disc [3]: 3 mm

— ChEMBL document CHEMBL1151215, “Isotsaokoin, an antifungal agent from Amomum tsao-ko” (2004)
